# Key:
# Test in all cases: relative viability (nuclei count vs DMSO), 5 days (fraction); higher = more cells survive
# [1] = test system: HOP-62
# Method in brief: (§1)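 Lung cancer cell lines, seeded in 1536-well plates, were treated the following day by pin tool with a single drug or with five library-drug doses (not always all listed) in √10 steps on top of a fixed anchor-drug dose. Cells were fixed and nuclei stained in one step after 5 days, and nuclei were counted. Relative viability is the nuclei count for treated wells divided by that for vehicle wells, reported as medians of duplicate plates.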
# [2] = test system: NCI-H596
# Method in brief: as §1
# [3] = test system: NCI-H1651
# Method in brief: as §1
# [4] = test system: ABC-1
# Method in brief: as §1
# [5] = test system: NCI-H1355
# Method in brief: as §1
# [6] = test system: LC-2-ad
# Method in brief: as §1
# [7] = test system: NCI-H727
# Method in brief: as §1
# [8] = test system: PC-3 [JPC-3]
# Method in brief: as §1
# [9] = test system: NCI-H460
# Method in brief: as §1
# [10] = test system: NCI-H322M
# Method in brief: as §1
# [11] = test system: CAL-12T
# Method in brief: as §1
# [12] = test system: 201T
# Method in brief: as §1
# [13] = test system: NCI-H2087
# Method in brief: as §1
# [14] = test system: NCI-H2342
# Method in brief: as §1
# [15] = test system: NCI-H23
# Method in brief: as §1
# [16] = test system: NCI-H1944
# Method in brief: as §1
# [17] = test system: ChaGo-K-1
# Method in brief: as §1
# [18] = test system: NCI-H2126
# Method in brief: as §1
# [19] = test system: NCI-H1666
# Method in brief: as §1
structure (smiles),measurement,setting,value
Oc1nc(-c2ccc(C(F)(F)F)cc2)nc2c1CSCC2 [XAV939] + NC(=O)Nc1cc(-c2cccc(F)c2)sc1C(=O)N[C@H]1CCCNC1 [AZD7762] (partner 0.2 µM),relative viability,[1]; first compound 0.08 µM,0.827
same,relative viability,[1]; first compound 0.253 µM,0.503
same,relative viability,[1]; first compound 0.8 µM,0.613
same,relative viability,[1]; first compound 2.53 µM,0.323
same,relative viability,[2]; first compound 0.08 µM,0.918
same,relative viability,[2]; first compound 0.253 µM,0.896
same,relative viability,[2]; first compound 0.8 µM,1.02
same,relative viability,[2]; first compound 2.53 µM,1.02
same,relative viability,[3]; first compound 0.08 µM,0.518
same,relative viability,[3]; first compound 0.253 µM,0.429
same,relative viability,[3]; first compound 0.8 µM,0.383
same,relative viability,[3]; first compound 2.53 µM,0.389
same,relative viability,[4]; first compound 0.253 µM,0.537
same,relative viability,[4]; first compound 0.8 µM,0.768
same,relative viability,[4]; first compound 2.53 µM,0.676
same,relative viability,[5]; first compound 0.08 µM,0.728
same,relative viability,[5]; first compound 0.253 µM,0.613
same,relative viability,[5]; first compound 0.8 µM,0.626
same,relative viability,[5]; first compound 2.53 µM,0.561
same,relative viability,[6]; first compound 0.08 µM,0.865
same,relative viability,[6]; first compound 0.253 µM,0.711
same,relative viability,[6]; first compound 0.8 µM,0.806
same,relative viability,[6]; first compound 2.53 µM,0.724
same,relative viability,[7]; first compound 0.08 µM,0.514
same,relative viability,[7]; first compound 0.8 µM,0.626
same,relative viability,[7]; first compound 2.53 µM,0.783
same,relative viability,[8]; first compound 0.253 µM,0.691
same,relative viability,[8]; first compound 0.8 µM,0.753
same,relative viability,[8]; first compound 2.53 µM,0.801
same,relative viability,[9]; first compound 0.08 µM,0.765
same,relative viability,[9]; first compound 0.253 µM,0.631
same,relative viability,[9]; first compound 0.8 µM,0.636
same,relative viability,[9]; first compound 2.53 µM,0.551
same,relative viability,[10]; first compound 0.08 µM,0.573
same,relative viability,[10]; first compound 0.253 µM,0.45
same,relative viability,[10]; first compound 0.8 µM,0.539
same,relative viability,[10]; first compound 2.53 µM,0.495
same,relative viability,[11]; first compound 0.08 µM,0.654
same,relative viability,[11]; first compound 0.253 µM,0.595
same,relative viability,[11]; first compound 0.8 µM,0.609
same,relative viability,[11]; first compound 2.53 µM,0.507
same,relative viability,[12]; first compound 0.08 µM,0.781
same,relative viability,[12]; first compound 0.253 µM,0.497
same,relative viability,[12]; first compound 0.8 µM,0.724
same,relative viability,[12]; first compound 2.53 µM,0.64
same,relative viability,[13]; first compound 0.08 µM,1.29
same,relative viability,[13]; first compound 0.253 µM,1.2
same,relative viability,[13]; first compound 0.8 µM,1.22
same,relative viability,[13]; first compound 2.53 µM,1.31
same,relative viability,[14]; first compound 0.08 µM,0.425
same,relative viability,[14]; first compound 0.253 µM,0.443
same,relative viability,[14]; first compound 0.8 µM,0.401
same,relative viability,[14]; first compound 2.53 µM,0.345
same,relative viability,[15]; first compound 0.08 µM,0.393
same,relative viability,[15]; first compound 0.8 µM,0.195
same,relative viability,[15]; first compound 2.53 µM,0.238
same,relative viability,[16]; first compound 0.08 µM,0.589
same,relative viability,[16]; first compound 0.253 µM,0.539
same,relative viability,[16]; first compound 0.8 µM,0.477
same,relative viability,[16]; first compound 2.53 µM,0.382
same,relative viability,[17]; first compound 0.08 µM,0.904
same,relative viability,[17]; first compound 0.253 µM,0.686
same,relative viability,[17]; first compound 0.8 µM,0.717
same,relative viability,[17]; first compound 2.53 µM,0.754
same,relative viability,[18]; first compound 0.08 µM,1.04
same,relative viability,[18]; first compound 0.253 µM,0.912
same,relative viability,[18]; first compound 0.8 µM,0.943
same,relative viability,[18]; first compound 2.53 µM,0.882
same,relative viability,[19]; first compound 0.08 µM,0.885
same,relative viability,[19]; first compound 0.253 µM,0.656
same,relative viability,[19]; first compound 0.8 µM,0.735
same,relative viability,[19]; first compound 2.53 µM,0.621
